In data set [1] the test system is Cell membrane. The data set can be described thus: Induction of cytoplasmic membrane depolarization in methicilin-resistant Staphylococcus aureus 21455 at 16 times MIC by DiSC3(5) dye-based fluorescence assay.
Data set [2] concerns Staphylococcus aureus. The data set can be described thus: Antibacterial activity against methicilin-resistant Staphylococcus aureus 42412 assessed as inhibition of bacterial growth. The class given is functional.
Data set [3] has as its system Staphylococcus epidermidis. The data set can be described thus: Antibacterial activity against Staphylococcus epidermidis 12228 assessed as inhibition of bacterial growth. It counts as functional.
The test system of data set [4] is Staphylococcus epidermidis. The data set can be described thus: Antibacterial activity against Staphylococcus epidermidis 1457 assessed as inhibition of biofilm formation at 10 ug/ml incubated for 5 hrs by confocal microscopic analysis. The class given is functional, organism-based. To be noted: dose 10.0 µg/ml.
Data set [5] relates to Enterococcus faecium. Description: Antibacterial activity against Vancomycin-resistant Enterococcus […] ATCC 700802 assessed as inhibition of bacterial growth. The class given is functional.
Data set [6] has as its system Staphylococcus saprophyticus. Description: Antibacterial activity against Staphylococcus saprophyticus ATCC 49453 assessed as inhibition of bacterial growth. It counts as functional.
The subject of data set [7] is Staphylococcus aureus. Description: Antibacterial activity against methicilin-resistant Staphylococcus aureus 21455 assessed as inhibition of bacterial growth. It counts as functional.
Data set [8] has as its system Staphylococcus aureus. The data set can be described thus: Antibacterial activity against Staphylococcus aureus 4299 assessed as inhibition of bacterial growth. The class given is functional.
The test system of another data set is Bacillus subtilis. Description: Antibacterial activity against Bacillus subtilis ATCC 6633 assessed as inhibition of bacterial growth. The class given is functional.
Data set [9] has as its system Cell membrane. The data set can be described thus: Induction of cell membrane […] in methicilin-resistant Staphylococcus aureus 21455 assessed as increase in fluorescence intensity at 8 times MIC by SYTOX green dye based fluorescence analysis. The class given is cell membranes.
Data set [10] has as its system Staphylococcus saprophyticus. The data set can be described thus: Antibacterial activity against Staphylococcus saprophyticus ATCC 49907 assessed as inhibition of bacterial growth. The class given is functional.
Data set [11] relates to Staphylococcus aureus. Description: Bactericidal activity against methicilin-resistant Staphylococcus aureus 21455 assessed as reduction in bacterial viability at 2 times MIC observed after 4 hrs by time-kill kinetic assay relative to control. The class given is functional.
Data set [12] relates to Staphylococcus aureus. Description: Antibacterial activity against methicilin-resistant Staphylococcus aureus ATCC 700699 assessed as inhibition of bacterial growth. It counts as functional.
Data set [13] in a line: Hemolytic activity in rabbit erythrocytes assessed as hemolysis at 256 microg/ml relative to control. It counts as toxicity, cell-based, Oryctolagus cuniculus, Erythrocyte. The conditions noted are these: at 256 µg/mL, read-out: Activity.
For data set [14], the system named is Cell membrane. Description: Induction of cell membrane […] in methicilin-resistant Staphylococcus aureus 21455 assessed as increase in fluorescence intensity at 16 times MIC by SYTOX green dye based fluorescence analysis. It counts as cell membranes.
Data set [15] has as its system Staphylococcus aureus. The data set can be described thus: Bactericidal activity against methicilin-resistant Staphylococcus aureus 21455 assessed as reduction in bacterial colony forming unit at 16 times MIC observed after 2 hrs by time-kill kinetic assay. It counts as functional.
The next data set deals with Bacillus cereus. Description: Antibacterial activity against Bacillus cereus ATCC 11788 assessed as inhibition of bacterial growth. It counts as functional.
Data set [16] concerns Staphylococcus aureus. Description: Antibacterial activity against Staphylococcus aureus 15981 assessed as inhibition of biofilm formation at 10 ug/ml incubated for 5 hrs by confocal microscopic analysis. The class given is functional, organism-based. To be noted: dose 10.0 µg/ml.
Data set [17] deals with Staphylococcus aureus. The data set can be described thus: Antibacterial activity against methicilin-resistant Staphylococcus aureus 1003 assessed as inhibition of bacterial growth. It counts as functional.
Data set [18] relates to Enterococcus faecium. Description: Antibacterial activity against Vancomycin-resistant Enterococcus […] ATCC 29212 assessed as inhibition of bacterial growth. To be noted: Enterococcus faecalis. The class given is functional.
In data set [19] the test system is Staphylococcus saprophyticus. The data set can be described thus: Antibacterial activity against Staphylococcus saprophyticus ATCC 15305 assessed as inhibition of bacterial growth. It counts as functional.
Data set [20] has as its system Cell membrane. Description: Induction of cytoplasmic membrane depolarization in methicilin-resistant Staphylococcus aureus 21455 at 8 times MIC by DiSC3(5) dye-based fluorescence assay.
In data set [21] the test system is Enterococcus faecium. The data set can be described thus: Antibacterial activity against Vancomycin-resistant Enterococcus faecium 1014 assessed as inhibition of bacterial growth. The class given is functional.
In data set [22] the test system is Staphylococcus aureus. The data set can be described thus: Antibacterial activity against Staphylococcus aureus 29213 assessed as inhibition of bacterial growth. It counts as functional.
A short description of data set [23]: Hemolytic activity in rabbit erythrocytes assessed as hemolysis at 64 microg/ml relative to control. The class given is toxicity, cell-based, Oryctolagus cuniculus, Erythrocyte. To be noted: at 64 µg/mL, read-out: Activity.
The test system of data set [24] is Staphylococcus saprophyticus. Description: Antibacterial activity against Staphylococcus saprophyticus ATCC BAA 750 assessed as inhibition of bacterial growth. It counts as functional.
The subject of data set [25] is Staphylococcus aureus. Description: Bactericidal activity against methicilin-resistant Staphylococcus aureus 21455 assessed as inhibition of bacterial growth by time-kill kinetic assay. The class given is functional, organism-based.

Values after ≈ are worked out from the molar mass of the structure shown. Active and inactive are the calls of the source. No cut-off for these calls is given here.

In general, MIC refers to the lowest concentration that inhibits growth of the organism. Turning to `CC[C@H](C)[C@H](NC(=O)[C@@H](Cc1ccccc1)NC)C(=O)N[C@@H](CCCNC(=N)N)C(=O)N[C@H](CCCNC(=N)N)C(=O)N[C@@H](C(=O)N[C@H](C(=O)N[C@@H](CO)C(=O)N[C@H]1C(=O)N[C@@H](C)C(=O)N[C@@H](C2CCCCC2)C(=O)N[C@@H]([C@@H](C)CC)C(=O)O[C@H]1C)[C@@H](C)CC)[C@@H](C)CC`, the result (in the data set with Cell membrane [1]; in data set [4]; in the data set with Cell membrane [9]; with Cell membrane [14]; in the data set with Staphylococcus aureus [16]; with Cell membrane [20]) was Active. The MIC was 0.063 µg/mL (≈ 0.0476 µM) with Staphylococcus aureus [2]; 0.063 µg/mL (≈ 0.0476 µM) in data set [3]; 2 µg/mL (≈ 1.51 µM) in the data set on Enterococcus faecium [5]; 0.125 µg/mL (≈ 0.0944 µM) in [6]; 0.25 µg/mL (≈ 0.189 µM) in the data set with Staphylococcus aureus [7]; 0.125 µg/mL (≈ 0.0944 µM) in the data set on Staphylococcus aureus [8]. Further, the MIC with Bacillus subtilis was 0.063 µg/mL (≈ 0.0476 µM); in data set [10] it was 0.063 µg/mL (≈ 0.0476 µM); in the data set on Staphylococcus aureus [12] it was 0.25 µg/mL (≈ 0.189 µM); in the data set with Bacillus cereus, 2 µg/mL (≈ 1.51 µM); in the data set with Staphylococcus aureus [17], 0.5 µg/mL (≈ 0.377 µM); in the data set with Enterococcus faecium [18] it was 2 µg/mL (≈ 1.51 µM). The MIC in [19] is under 0.063 µg/mL; with Enterococcus faecium [21], 1 µg/mL (≈ 0.755 µM); in the data set with Staphylococcus aureus [22] it was 0.063 µg/mL (≈ 0.0476 µM); in data set [24], under 0.063 µg/mL. Also, the Activity entry in the data set on Staphylococcus aureus [11] was “>=99.9%”; in the data set on Staphylococcus aureus [15] it was “>=3 log10CFU”; in the data set with Staphylococcus aureus [25], “Dose-Dependent Effect”. Also, the hemolysis at 256 microg/ml in data set [13] was 18%. Besides, the hemolysis at 64 microg/ml in [23] amounted to 3.7%.

Consider `CC[C@H](C)[C@H](NC(=O)[C@@H](Cc1ccccc1)NC)C(=O)N[C@@H](CO)C(=O)N[C@H](CCCNC(=N)N)C(=O)N[C@@H](C(=O)N[C@H](C(=O)N[C@@H](CO)C(=O)N[C@H]1C(=O)N[C@@H](CCCNC(=N)N)C(=O)N[C@@H](C2CCCCC2)C(=O)N[C@@H]([C@@H](C)CC)C(=O)O[C@H]1C)[C@@H](C)CC)[C@@H](C)CC`, for which the minimum inhibitory concentration (MIC) is 0.125 µg/mL (≈ 0.0932 µM) with Staphylococcus aureus [2]; 0.063 µg/mL (≈ 0.047 µM) in [3]; 1 µg/mL (≈ 0.746 µM) in the data set with Enterococcus faecium [5]; 0.063 µg/mL (≈ 0.047 µM) in [6]; 0.25 µg/mL (≈ 0.186 µM) in the data set with Staphylococcus aureus [7]; 0.5 µg/mL (≈ 0.373 µM) with Staphylococcus aureus [8]. Further, the MIC in the data set on Bacillus subtilis was determined as 0.063 µg/mL (≈ 0.047 µM); in data set [10], 0.063 µg/mL (≈ 0.047 µM); with Staphylococcus aureus [12], 0.5 µg/mL (≈ 0.373 µM); with Bacillus cereus, 1 µg/mL (≈ 0.746 µM); in the data set on Staphylococcus aureus [17], 0.5 µg/mL (≈ 0.373 µM); in the data set on Enterococcus faecium [18] it was 1 µg/mL (≈ 0.746 µM). In addition, the MIC in data set [19] is under 0.063 µg/mL; in the data set with Enterococcus faecium [21], 1 µg/mL (≈ 0.746 µM); in the data set on Staphylococcus aureus [22], 0.5 µg/mL (≈ 0.373 µM); in data set [24], 0.125 µg/mL (≈ 0.0932 µM).

In the case of `CC[C@H](C)[C@H](NC(=O)[C@@H](Cc1ccccc1)NC)C(=O)N[C@@H](CCCNC(=N)N)C(=O)N[C@H](CCCNC(=N)N)C(=O)N[C@@H](C(=O)N[C@H](C(=O)N[C@@H](CO)C(=O)N[C@H]1C(=O)N[C@@H](CCCNC(=N)N)C(=O)N[C@@H](C2CCCCC2)C(=O)N[C@@H]([C@@H](C)CC)C(=O)O[C@H]1C)[C@@H](C)CC)[C@@H](C)CC`, the outcome in the data set with Cell membrane [1] and with Cell membrane [20] was Active. The minimal inhibitory concentration (MIC) in the data set on Staphylococcus aureus [2] was found to be 1 µg/mL (≈ 0.709 µM); in [3], 0.063 µg/mL (≈ 0.0447 µM); with Enterococcus faecium [5], 4 µg/mL (≈ 2.84 µM); in data set [6], 0.063 µg/mL (≈ 0.0447 µM); in the data set with Staphylococcus aureus [7], 2 µg/mL (≈ 1.42 µM); with Staphylococcus aureus [8], 1 µg/mL (≈ 0.709 µM). The MIC with Bacillus subtilis worked out at 0.063 µg/mL (≈ 0.0447 µM); in data set [10], 0.063 µg/mL (≈ 0.0447 µM); in the data set on Staphylococcus aureus [12] it was 1 µg/mL (≈ 0.709 µM); with Bacillus cereus, 0.5 µg/mL (≈ 0.355 µM); in the data set on Staphylococcus aureus [17] it was 1 µg/mL (≈ 0.709 µM); in the data set on Enterococcus faecium [18], 2 µg/mL (≈ 1.42 µM). Besides, the MIC in data set [19] was under 0.063 µg/mL; in the data set with Enterococcus faecium [21], 2 µg/mL (≈ 1.42 µM); in the data set with Staphylococcus aureus [22], 0.5 µg/mL (≈ 0.355 µM); in [24], under 0.063 µg/mL. The Activity in the data set with Cell membrane [9] was 65.5%; in the data set with Staphylococcus aureus [11], “>=99.9%”; with Cell membrane [14], 70.2%; in the data set on Staphylococcus aureus [15], “>=3 log10CFU”; in the data set with Staphylococcus aureus [25], “Dose-Dependent Effect”. Moreover, the hemolysis at 256 microg/ml in [13] was found to be 25%. Moreover, the hemolysis at 64 microg/ml in [23] worked out at 5.4%.

These data come from ChEMBL document CHEMBL5634143, “Development of teixobactin analogues containing hydrophobic, non-proteogenic amino acids that are highly potent against multidrug-resistant bacteria and biofilms” (Eur J Med Chem, 2023).
